Measured values taken from ChEMBL document CHEMBL2040712, “Design and synthesis of a second series of triazole-based compounds as potent dual mPGES-1 and 5-lipoxygenase inhibitors” (Eur J Med Chem, 2012).

Experiments:
[1] = molecular target: T1, Prostaglandin E synthase (Homo sapiens, UniProt O14684); assay: Inhibition of mPGES1 in IL-1beta-stimulated human A549 cell assessed as inhibition of PGE2 production preincubated for 15 mins before substrate addition by RP-HPLC method
T1 sequence (O14684 whole entry): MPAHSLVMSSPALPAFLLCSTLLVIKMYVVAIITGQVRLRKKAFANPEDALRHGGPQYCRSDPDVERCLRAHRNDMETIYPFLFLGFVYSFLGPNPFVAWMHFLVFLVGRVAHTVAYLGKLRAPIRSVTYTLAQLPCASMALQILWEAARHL

[2] = molecular target: T2, Prostaglandin E synthase (Homo sapiens) (UniProt O14684); assay: Inhibition of mPGES1 in IL-1beta-stimulated human A549 cell assessed as remaining activity measuring of PGE2 level at 10 uM preincubated for 15 mins before substrate addition by RP-HPLC method
T2 sequence (whole entry): T1 sequence (O14684 whole entry)

[3] = molecular target: T3, Polyunsaturated fatty acid 5-lipoxygenase (Homo sapiens, UniProt P09917); assay: Inhibition of human recombinant 5-lipoxygenase in cell-free system preincubated for 10 mins before substrate arachidonic acid addition measured after 10 mins by RP-HPLC method
T3 sequence (P09917 whole entry): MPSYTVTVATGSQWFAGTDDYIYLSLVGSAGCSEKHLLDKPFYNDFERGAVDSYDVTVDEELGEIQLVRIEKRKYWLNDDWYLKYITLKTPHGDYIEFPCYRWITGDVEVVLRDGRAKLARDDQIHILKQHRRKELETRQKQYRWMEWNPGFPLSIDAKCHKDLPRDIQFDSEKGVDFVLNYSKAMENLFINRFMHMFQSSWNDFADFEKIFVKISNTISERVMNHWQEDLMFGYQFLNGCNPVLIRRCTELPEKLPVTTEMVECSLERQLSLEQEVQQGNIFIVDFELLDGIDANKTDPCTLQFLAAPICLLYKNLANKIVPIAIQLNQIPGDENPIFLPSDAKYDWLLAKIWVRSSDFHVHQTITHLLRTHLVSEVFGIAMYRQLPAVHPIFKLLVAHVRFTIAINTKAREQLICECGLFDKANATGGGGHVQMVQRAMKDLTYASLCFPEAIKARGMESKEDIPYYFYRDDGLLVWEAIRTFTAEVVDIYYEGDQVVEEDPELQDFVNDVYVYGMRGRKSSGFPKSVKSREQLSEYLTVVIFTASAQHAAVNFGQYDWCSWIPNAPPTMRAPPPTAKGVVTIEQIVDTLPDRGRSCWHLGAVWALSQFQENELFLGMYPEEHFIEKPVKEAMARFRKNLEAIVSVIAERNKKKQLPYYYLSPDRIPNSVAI

[4] = molecular target: T3, Polyunsaturated fatty acid 5-lipoxygenase; assay: Inhibition of 5-lipoxygenase in human neutrophil preincubated for 15 mins before substrate arachidonic acid addition measured after 10 mins by HPLC method
[5] = molecular target: T4, Polyunsaturated fatty acid 5-lipoxygenase (Homo sapiens) (UniProt P09917); assay: Inhibition of human recombinant 5-lipoxygenase in cell-free system assessed as remaining activity at 10 uM preincubated for 10 mins before substrate arachidonic acid addition measured after 10 mins by RP-HPLC method
T4 sequence (whole entry): T3 sequence (P09917 whole entry)

[6] = molecular target: T4, Polyunsaturated fatty acid 5-lipoxygenase (Homo sapiens); assay: Inhibition of 5-lipoxygenase in human neutrophil assessed as remaining activity at 10 uM preincubated for 15 mins before substrate arachidonic acid addition measured after 10 mins by HPLC method
[7] = species on record: Rattus norvegicus; assay: Inhibition of mPGES1 in rat microsomal membranes assessed as inhibition of PGE2 production at 10 uM after 40 seconds by enzyme immunoassay; type: microsomes; settings: Microsome

Row | inhibition [7] | SMILES | IC50 [1] | Activity [2] | IC50 [3] | IC50 [4] | Activity [5] | Activity [6]
1 |  | O=C(O)c1ccc(Cn2cc(-c3ccc(-c4cccc(O)c4)cc3)nn2)c([N+](=O)[O-])c1 | > 10 µM | 55.6% | > 10 µM | > 10 µM | 80.2% | 114%
2 |  | Nc1cc(C(=O)O)ccc1Cn1cc(-c2ccc(-c3ccccc3COc3cc(C(F)(F)F)ccc3Cl)cc2)nn1 | 0.68 µM |  | 0.9 µM | 2.1 µM |  | 
3 |  | O=C(O)c1ccc(-c2ccc(-c3cn(Cc4ccc(C(=O)O)cc4[N+](=O)[O-])nn3)cc2)cc1 | > 10 µM | 93% | > 5 µM | > 5 µM |  | 
4 |  | O=C(O)c1ccc(Cn2cc(-c3ccc(-c4ccccc4C(=O)O)cc3)nn2)c([N+](=O)[O-])c1 | > 10 µM | 94.1% | > 10 µM | > 10 µM | 75.3% | 65.9%
5 |  | CN(C)c1ccc2cc(S(=O)(=O)Nc3ccc(-c4ccc(-c5cn(Cc6ccc(C(=O)O)cc6[N+](=O)[O-])nn5)cc4)cc3)ccc2c1 | > 10 µM | 72.5% | 6.1 µM | > 10 µM |  | 96.5%
6 |  | O=C(O)c1ccc(Cn2cc(-c3ccc(-c4ccccc4COc4cc(C(F)(F)F)ccc4Cl)cc3)nn2)c([N+](=O)[O-])c1 | 1.2 µM |  | 2 µM | 5.3 µM |  | 
7 |  | O=C(O)c1ccc(Cn2cc(-c3ccc(-c4ccc(O)cc4)cc3)nn2)c([N+](=O)[O-])c1 | > 10 µM | 74.2% | 6.8 µM | > 10 µM |  | 108%
8 | 82% | CC(C)c1ccc2c(c1)c(SC(C)(C)C)c(CC(C)(C)C(=O)O)n2Cc1ccc(Cl)cc1 |  |  |  |  |  | 
9 |  | COc1ccc(-c2ccc(-c3cn(Cc4ccc(C(=O)O)cc4[N+](=O)[O-])nn3)cc2)cc1CN1CCOCC1 | > 10 µM | 87.4% | > 10 µM | > 10 µM | 84.9% | 111%
10 |  | Nc1ccc(-c2ccc(-c3cn(Cc4ccc(C(=O)O)cc4[N+](=O)[O-])nn3)cc2)cc1 | > 10 µM | 65.5% | > 10 µM | > 10 µM | 63.5% | 100%
11 |  | O=C(O)c1ccc(Cn2cc(-c3ccc(-c4ccccc4COc4cc(C(F)(F)F)ccc4Cl)cc3)nn2)cc1 | 1 µM |  | 1.47 µM | 2 µM |  | 
12 |  | COc1cc(-c2ccc(-c3cn(Cc4ccc(C(=O)O)cc4[N+](=O)[O-])nn3)cc2)cc(OC)c1OC | > 10 µM | 54.3% | > 10 µM | > 10 µM | 64.3% | 90.2%
13 |  | O=C(O)c1ccc(Cn2cc(-c3ccc(-c4ccccc4)cc3)nn2)c([N+](=O)[O-])c1 | < 3.2 µM |  |  |  |  | 
14 |  | O=C(O)c1ccc(S(=O)(=O)n2cc(-c3ccc(-c4ccccc4COc4cc(C(F)(F)F)ccc4Cl)cc3)nn2)cc1 | > 10 µM | 78.6% | 1.96 µM | 1.2 µM |  | 
15 |  | O=C(O)c1ccc(Cn2cc(-c3ccc(-c4cccs4)cc3)nn2)c([N+](=O)[O-])c1 | 5.5 µM |  | > 10 µM | > 10 µM | 52.2% | 89.7%
16 |  | O=C(O)c1cccc(-c2ccc(-c3cn(Cc4ccc(C(=O)O)cc4[N+](=O)[O-])nn3)cc2)c1 | > 10 µM | 82.1% | > 10 µM | > 10 µM | 74.7% | 124%
17 |  | O=C(O)c1ccc(Cn2cc(-c3ccc(-c4cccc(C(=O)N5CCOCC5)c4)cc3)nn2)c([N+](=O)[O-])c1 | > 10 µM | 88.9% | > 10 µM | > 10 µM | 62.7% | 125%
